melting point [°C] | Structure (SMILES)
250 to 252 | COc1ccc(OC)c(C=C2NC(=O)NC2=O)c1
83 | COc1ccc(-c2sc3cc(OC)ccc3c2Br)cc1
125 to 127 | CCCCc1nn(-c2cc([N+](=O)[O-])ccc2Br)c(=O)[nH]1
229 to 230 | O=C(CSc1cccc(Br)c1)c1ccc2[nH]c3ncc(Cl)cc3c2c1
141 to 142 | CCOC(=O)c1c(O)c2cc(Cl)cnc2n(Cc2ccccc2)c1=O
305 to 308 | N#Cc1cnc2c(sc3ccccc32)c1Cl
136 | COc1cc(C(=O)c2nc(-c3ccc[nH]3)c3ccccn23)ccc1N
130 | Cc1ccc(S(=O)(=O)O)cc1C=C1C(=O)C2(C)CCC1C2(C)C (stereo unspecified)
167 to 168 | Cc1cccc(OC2CN(C(N)=O)C2)c1
253 to 255 | COC(=O)c1ccc(-c2cnc3[nH]c(=O)n(CC4CCCCC4)c3n2)cc1
258 to 260 | O=C(O)c1ccc2c(c1)CCc1c(Cl)cccc1C2=O
273 to 275 | O=C1CCC(n2cnc3ccc(Br)cc3c2=O)C(=O)N1 (stereo unspecified)
163 to 164 | Cc1c2n(c(=O)c3cc(OC(=O)CN)cc(OC(=O)CN)c13)CCCC2
216 to 218 | Nc1ccc(C(=O)N2CCCC(=O)c3sccc32)cc1
121 to 123 | COc1cc(C(=O)N(C(C)C)C2CCCCC2)ccc1Cn1c(-c2ccccc2Cl)nc2cccnc21
242 to 245 | O=C1Cc2cc([N+](=O)[O-])ccc2Sc2cc(Br)ccc21
165 to 166 | O=C1c2ccccc2-c2c1c1ccccc1c(=O)n2CCCCO
181 to 183 | COC(=O)C1=C(C)Nc2c(c(-c3ccccc3)nn2C)C1c1ccc(F)cc1 (stereo unspecified)
215 | COc1ccc2c(c1)CCC1(C)CC(=O)NN=C21 (stereo unspecified)
170 to 172 | CCOC(=O)C(C(=O)OCC)=C1NC(=O)N(c2ccc([N+](=O)[O-])cc2OC)C1=O
166 to 169 | O=[N+]([O-])c1ccc2c(c1)N(C1CC1)CNS2(=O)=O
138 | COC(=O)CCCc1cc2nc(Cl)ccc2n1S(=O)(=O)c1cc(C)cc(C)c1
112 to 113 | OCC1CCn2c(nc3ccccc32)S1 (stereo unspecified)
141 to 144 | COc1cc(NCCCC(C)N2C(=O)c3ccccc3C2=O)c2nc(C)cc(C)c2c1OC (stereo unspecified)
249 to 251 | COc1ccc(Oc2cccc3ncnc(NC(=O)Nc4cccc(Br)c4)c23)cc1

The remaining lines, values behind:

Structure (SMILES) | melting point [°C]
O=C(O)c1cccc(CNC2CC3CC2C2CCCC32)c1 (stereo unspecified) | 258 to 261
COC(=O)c1nc(N(C)C2CCCCC2)ccc1Oc1nc(OC)cc(OC)n1 | 116 to 118
CCCCCCNC(=S)NN=C(CCCCl)c1ccccc1 | 42 to 44
N#Cc1c(-c2ccc(OCc3ccccc3)cc2)cn(-c2cccc(OCCCl)c2)c1N | 77 to 79
O=c1[nH]c(-c2ccc(CCCl)cc2)cs1 | 226 to 229
Cc1cccc(NC(=O)NN2CCN(CCc3c[nH]c4ccccc34)CC2)c1 | 186 to 188
CN1CCN(S(=O)(=O)c2cc(NC(=O)c3cnn4c(C(F)F)cc(-c5ccc(C(F)(F)F)cc5)nc34)c(Cl)s2)CC1 | 293
O=C(O)Cc1cnc(Cc2ccc(NC(=O)c3ccc(C(F)(F)F)cc3)cc2)n2ccnc12 | 205 to 207
O=S(=O)(c1ccccc1)n1ccc2cnccc21 | 127
CCc1c([N+](=O)[O-])cc(C2CCNCC2)cc1[N+](=O)[O-] | 85 to 86
CNc1nc(SC)ncc1Cl | 241
N#Cc1c(-c2cccs2)nn(-c2ccccc2)c1N | 165 to 167
CCOC(=O)C=CC(=S)c1ccc(-c2ccccc2)cc1 | 74 to 75
CN(CC(=O)O)C(=S)c1cc(-c2ccccc2)nc2ccccc12 | 228 to 230
CC(=O)c1ccc(OCCOc2ccc3ccccc3c2)cc1Cl | 119 to 120
Cc1cc(C(=O)NCO)ncc1C(c1c(F)ccc(F)c1F)S(=O)(=O)CCC(F)(F)F (stereo unspecified) | 146 to 148
COc1cc(C(=O)N(CCCC(=O)NCCCC(=O)O)c2c(C)cccc2C)cc(OC)c1OC | 100 to 101
OCCOc1ccc(-n2cncn2)cc1 | 151 to 152
C[C@@H](CN1CCc2ccc3c(c21)OCCO3)NC(=O)OC(C)(C)C | 130 to 132
CNC(=O)c1cccc(C(O)c2ccc(F)cc2)c1 (stereo unspecified) | 138 to 139
CC(CC(=O)c1ccccc1)C(=O)N1CSCC1C(=O)O (stereo unspecified) | 182 to 183
COc1ccccc1-n1c(-c2sc(Nc3ccc(Cl)cc3)nc2-c2ccccc2)nc2ccccc2c1=O | 230 to 232
O=C(O)COc1cccc(-c2ccc(Cl)c(C(=O)NCC34CC5CC(CC(C5)C3)C4)c2)c1 | 99 to 101

Structure (SMILES) | melting point [°C]
CCOc1ccc(C[N+](=O)[O-])c(C=CC[N+](=O)[O-])c1OCc1ccccc1 | 89 to 90
CCCCC(CC)COc1cc2c3c(c4cc(OCC(CC)CCCC)c(OCC(CC)CCCC)cc4c2cc1OCC(CC)CCCC)C(=O)C=CC3=O (stereo unspecified) | 105 to 107
CN1CCC(OC2c3cccc(CCc4ccccc4)c3CCn3cc(-c4ccccc4)nc32)CC1 (stereo unspecified) | 67
CNC(=O)CCc1nc(-c2ccc(Cl)cc2)co1 | 169 to 170
CCOC(=O)Cc1ccc(Cc2nc3n(-c4c(Cl)cccc4Cl)[nH]c(C(C)C)c-3c(=O)n2)cc1 | 168 to 169
COC(=O)C(C#N)CC(=S)c1ccc(C)cc1 (stereo unspecified) | 88 to 90
COc1cc(N)c(Cl)cc1C(=O)NCC1CCN(CCCCCC(=O)c2ccc(Cl)cc2)CC1 | 156 to 158
c1ccc(N2CCN(CCc3cc4ccccc4[nH]3)CC2)cc1 | 184 to 186
C=CCOc1cc(COC2CCCCO2)ccc1OCCI (stereo unspecified) | 103 to 104
CS(=O)(=O)c1ccc(Oc2cc(OCc3ccccc3)c3[nH]c(C(=O)O)cc3c2)cc1 | 232 to 233
COC[C@H](C)NC(=O)c1c[nH]c2ncc(-c3nn(C)c4cc(F)c(F)cc34)nc12 | 295 to 297
CCCCCCCCCCCCCCCCSCC1(CS(=O)(=O)CCCI)CCCO1 (stereo unspecified) | 36 to 37
COc1nc(NC(COC(=O)NC(C)C)C(C)(C)C)nc(OC)c1[N+](=O)[O-] (stereo unspecified) | 110
CCON=C(CC)C1=C(O)CC(c2cc3c(cc2[N+](=O)[O-])OCO3)CC1=O (stereo unspecified) | 122
Cc1c(SCCN2CCOCC2)ccnc1CSc1nc2ccccc2n1CCO | 141 to 143
CN(C)N=C(CCC(=O)O)c1ccc(-c2ccc(Cl)cc2)cc1 | 158 to 160
CC(C)NC(=O)c1ccc(N2CCC(N3C(=O)OCc4ccccc43)CC2)c(S(C)(=O)=O)c1 | 240 to 242
COC(=O)C1CCC2C3CCC4CC(O)CCC4(C)C3C(N)CC12C (stereo unspecified) | 113 to 116
CCCCCCCCCCCCCCCCCCCCCCNc1cc(N)c([N+](=O)[O-])cc1[N+](=O)[O-] | 108 to 110
OC12CC3CC(CC(C3)C1=C1C3CC4CC(C3)CC1C4)C2 | 212 to 213
Cn1nc(-c2nc(O)c(Cl)cc2F)c(Cl)c1OC(F)F | 126 to 128
CCCCN(C(=O)CCC(=O)O)C1CC(C)(C)N(OC2CCCCC2)C(C)(C)C1 | 110 to 113
CCCCCCC(=S)SCCCC | 46 to 47
